# Assays:
# [1] = test system: VCAM-1 and COX2; experiment: TNF-α-induced VCAM-1 and COX2 expression in colon epithelial cells (immunoblot); type: cell-based, mouse; details: TNF-α-treated colon epithelial cells, 5 μM
# Description: Referring to FIG. 1, for example, colon epithelial cells were treated with TNF-α for the indicated time intervals in the presence or absence 5 μM of the PARP inhibitor AZD2281.
# Cell isolation, culture, treatments, RNA extraction, cDNA synthesis and quantitative PCR—Primary CEC were isolated essentially as described (29). The mouse colon adenocarcinoma (MC-38 or CT-26), Jurkat T, RAW264.7, or 3LL lung carcinoma cell lines were purchased from Kerafast (Boston, MA) or ATCC (Manassas, VA). Mouse embryonic fibroblasts were derived from WT, PARP-1^+/−, or PARP mice using standard protocols. CEC were serum-starved overnight in 0.5% FBS prior to treatment. […] Quantitative determination of gene expression levels using a 2-step cycling protocol was conducted on a MyIQ Cycler (Bio-Rad, Hercules, CA, USA). Relative expression levels were calculated using the 2[-Delta Delta C(T)] method. Quantities of all targets were normalized to the mouse β-actin gene.
# (§1) Cell fractionation, protein extraction and immunoblot analysis—Tumor tissues or cells were harvested and homogenized in RIPA lysis buffer (Santa Cruz Biotechnology) containing a cocktail of protease and phosphatase inhibitors on ice. […] Protein expression signals developed by ECL (Pierce, ThermoFisher Scientific) were determined by a G:Box Gel Image Analysis System (Syngene, Cambridge, UK) equipped with the GeneSys image capture software.
# [2] = test system: ARG-1, iNOS, COX2; experiment: Immunoblot of ARG-1, iNOS, COX2 and related factors in bone marrow-derived MDSCs; type: cell-based, mouse
# From the text: (I) Positive control for PARP-1 trapping.
# as §1, with “ice. Nuclear fractions were isolated as described (35) and the remaining chromatin pellets were washed then suspended in an isotonic buffer followed by sonication.” for “ice.”
smiles,measurement,setting,value
O=C(c1cc(Cc2n[nH]c(=O)c3ccccc23)ccc1F)N1CCN(C(=O)C2CC2)CC1 [olaparib],expression of inflammatory markers (VCAM-1 and COX2),[1],inhibits the expression of inflammatory markers
same,"increase in ARG-1, iNOS and COX2 during MDSC differentiation","[2]; 4 nM, single treatment 24 h after plating","sufficient to prevent the increase in ARG-1, iNOS, and COX2"
same,ARG-1 and iNOS in MDSCs stimulated by co-culture with MC-38 cells,"[2]; low and high concentrations (4 nM, 1 μM)",inhibitory effects
same,overall levels of STAT3 (and phosphorylated forms),[2]; low concentration 4 nM,increased the overall levels of STAT3

# Reference: patent publication US12121518B2, “PARP-1 and methods of use thereof” (The Board of Supervisors of Louisiana State University and …, priority 2017, dated 2024)
